One data set concerns p-PLCγ/t-PLCγ. In words: Western blotting of p-PLCγ/t-PLCγ in anti-IgG stimulated DOHH2 cells. The format is cell-based. The following applies: DOHH2 cells, 5, 100, 2000 nM, 1 h, anti-IgG stimulation. On the procedure:
Biological Embodiment 4: Analysis of Influences of Test Compounds on p-Btk/t-Btk, p-PLCγ/t-PLCγ and p-Erk/t-Erk Expression Levels of DOHH2 Cells by Virtue of Western Blotting
1) DOHH2 cells on a logarithmic phase were collected;
2) a cell concentration was adjusted to a needed concentration;
3) 2 ml of cell suspension was added into a 6-well plate for performing culture, three different concentrations, that is, 5 nM, 100 nM and 2000 nM, of test samples were respectively set, and each concentration was repeated once;
4) test samples were added into plate wells, and DMSO served as control, wherein a final concentration of the DMSO was 0.1%;
5) culture was performed for 1 h; and […]
6. protein extraction and quantification […]
5) a protein concentration was determined by using Pierce™ BCA Protein Assay Kit; and
6) according to BCA protein quantification results, all samples were diluted to the same final concentration by adding 4×LDS sample buffer and 10× sample reducing agent into the RIPA buffer solution, and the solution was heated at 100° C. for 10 min. […]
10) chemiluminiscence was detected by Tanon 5200 multi.
7. Quantification of strip intensity
Intensity of each strip was quantified by using Image quant densitometry software. […]

Data set [1] is described as follows: Pharmacokinetic study, single intravenous and oral dose, beagle dogs. It counts as in vivo. The following applies: male, blood; for AUC(0-t) / Cmax / Tmax / half-life: Dog; for half-life: read-out: T½ (converted). The procedure: Biological Embodiment 7: Pharmacokinetic Study of Performing Respective Single Intravenous and Oral Dose Delivery with Test Samples on SD Rats and Beagle Dogs
6 male beagle dogs were selected, grouped and administered according to an experimental design table; 3 animals in the first group were intravenously administered once on the day of administration, wherein the administration dosage was 2 mg/kg, and the administration volume was 2.5 mL/kg; 3 animals in the second group were orally intragastrically administered once on the day of administration, wherein the administration dosage was 30 mg/kg, and the administration volume was 5 mL/kg.
All the animals were subjected to cage edge observation twice every day so as to determine whether the animals got ill or had injuries or death and other situations and whether supply of foods and water was sufficient. In the test process, all administered animals were subjected to detailed clinical observation before administration and at blood collection points.
Before administration (0 h) and within 0.083 h, 0.25 h, 0.5 h, 1 h, 2 h, 4 h, 6 h, 8 h and 24 h after administration, blood samples were collected from femoral veins at 10 time points so as to be used for blood concentration test. Experimental design table

A further data set has as its system OCI-LY10. In words: In vitro tumor cell proliferation (CellTiter-Glo), OCI-LY10. It counts as cell-based. The following applies: Homo sapiens, OCI-Ly10, 72 h; read-out: Growth IC50. On the procedure: (§1) Biological Embodiment 8: Study on Effects of Active Compounds for Inhibiting In Vitro Tumor Cell Proliferation
(§2) Promega CellTiter-Glo cell activity detection kit by luminescence (Promega-G7573).
(§3) Tumor cell lines were cultured in a 5% of CO2 incubator at 37° C. according to respective culture conditions; and periodic passage was performed, and cells positioned in a logarithmic phase were taken for planking.
(§4) 3) 90 μL of cell suspension was added into each well of the culture plate, and a culture solution containing no cell was added into blank control;
(§5) 4) the culture plate was cultured overnight in the 5% of CO2 incubator having relative humidity of 100% at 37° C.
(§6) Preparation of a 400× compound storage plate: the compound was diluted from the maximum concentration gradient to the lowest concentration with DMSO. […]
(§7) The following steps were performed according to the specification of the Promega CellTiter-Glo cell activity detection kit by luminescence (Promega-G7573). […]
(§8) 9) the luminescence signal was detected on the 2104 EnVision plate reader.

The next data set relates to SU-DHL-4. Briefly: In vitro tumor cell proliferation (CellTiter-Glo), SU-DHL-4. It counts as cell-based. As to conditions: Homo sapiens, SU-DHL-4, 72 h; read-out: Growth IC50. The procedure:
as §1, §2, §3, §4, §5, §6, §7, §8

The subject of a further data set is WSU-DLCL-2. In words: In vitro tumor cell proliferation (CellTiter-Glo), WSU-DLCL-2. It counts as cell-based. The following applies: Homo sapiens, WSUDLCL2; WSU-DLCL-2, 72 h; read-out: Growth IC50. On the procedure:
as §1, §2, §3, §4, §5, §6, §7, §8
(In ATP-based viability assays light output follows the ATP content of the culture.)

The test system of another data set is Mino. Briefly: In vitro tumor cell proliferation (CellTiter-Glo), Mino. The following applies: Homo sapiens, 72 h, read-out: Growth IC50. It counts as cell-based. The procedure:
as §1, §2, §3, §4, §5, §6, §7, §8

A further data set deals with OCI-LY19. Briefly: In vitro tumor cell proliferation (CellTiter-Glo), OCI-LY19. It counts as cell-based. As to conditions: Homo sapiens, OCI-LY19, 72 h; read-out: Growth IC50. The procedure: as §1, §2, §3, §4, §5, §6, §7, §8

SMILES strings stand for the structures. Where two headings read alike, the source gives them in different places.

For `C=CC(=O)NN1CCCC(n2nc(-c3ccc(Oc4ccccc4)cc3)c3c(N)ncnc32)C1` (stereo not drawn) [Embodiment 6, N-(3-(4-amino-3-(4-phenoxyphenyl)-1H-pyrazolo[3,4-D]pyrimidine-1-yl)-1-piperidyl)-acrylamide], in the data set on p-PLCγ/t-PLCγ, the “relative level of p-PLCγ/t-PLCγ” value is on record as “obviously decreased”. Besides, the area under the curve AUC(0-t) (commonly exposure summed from dosing to a finite time, without extrapolation to infinity) in data set [1] (IV, 2 mg/kg) was 888 ng·h/mL; in data set [1] (PO, 30 mg/kg), 7420 ng·h/mL. Besides, the Cmax (usually the maximum level reached in the sampled fluid or tissue) in data set [1] (IV, 2 mg/kg) amounted to 1230 ng/mL; in data set [1] (PO, 30 mg/kg), 3830 ng/mL. Moreover, the Tmax (commonly the time at which the peak concentration occurs) in data set [1] (IV, 2 mg/kg) was 4.98 min; in data set [1] (PO, 30 mg/kg) it was 49.8 min. Moreover, the half-life in data set [1] (IV, 2 mg/kg) is 48 min; in data set [1] (PO, 30 mg/kg), 45 min. Moreover, the bioavailability (in general, the share of a dose that reaches the circulation, judged against a reference dose that is usually intravenous) in data set [1] (dog, oral, 30 mg/kg) is 54.6%. In addition, the half-maximal inhibitory concentration (IC50) (commonly the concentration that gives 50% inhibition) in the data set with OCI-LY10 stood at 6 nM; in the data set on SU-DHL-4 it was 75 nM; in the data set on WSU-DLCL-2, 921 nM; in the data set on Mino, 2170 nM; in the data set on OCI-LY19, 6790 nM.
